Values after ≈ are worked out from the molar mass of the structure shown.
Assays:
[1] = system: P388; test: Cytotoxicity against mouse P388 cells; format: functional, cell-based
[2] = Cytotoxicity against human HeLaS3 cells; format: functional, cell-based; settings: HeLa S3

| SMILES | IC50 [1] [µg/mL] | IC50 [2] [µg/mL] |
| --- | --- | --- |
| OC1C=C[C@]2(O)CCO[C@@H]2C1 (stereo not given in full) | 40.8 (≈ 261 µM) | > 100 |
| CCCC(=O)O[C@]12C=CC(=O)C[C@H]1OCC2 | 0.6 (≈ 2.68 µM) | 2.7 (≈ 12 µM) |
| CCCCCC(=O)O[C@]12C=CC(=O)C[C@H]1OCC2 | 0.3 (≈ 1.19 µM) | 1.8 (≈ 7.13 µM) |
| O=C1C=C[C@]2(OC(=O)c3ccccc3)CCO[C@@H]2C1 | 0.5 (≈ 1.94 µM) | 1.6 (≈ 6.19 µM) |
| O=C1CC[C@]2(O)CCO[C@@H]2C1 | 43 (≈ 275 µM) | > 100 |
| CCCCCCCC(=O)O[C@]12C=CC(O)C[C@H]1OCC2 (stereo not given in full) | 8.4 (≈ 29.7 µM) | 3.5 (≈ 12.4 µM) |
| CCCC(=O)O[C@]12C=CC(O)C[C@H]1OCC2 (stereo not given in full) | > 100 | 8.8 (≈ 38.9 µM) |
| CC(=O)O[C@]12C=CC(O)C[C@H]1OCC2 (stereo not given in full) | > 100 | > 100 |
| O=C1C=C[C@]2(OC(=O)c3ccc(Cl)cc3)CCO[C@@H]2C1 | 0.7 (≈ 2.39 µM) | 0.9 (≈ 3.07 µM) |
| CCCCCC(=O)O[C@]12C=CC(O)C[C@H]1OCC2 (stereo not given in full) | 38.5 (≈ 151 µM) | 5.3 (≈ 20.8 µM) |
| CCCCCCCC(=O)O[C@]12C=CC(=O)C[C@H]1OCC2 | 0.3 (≈ 1.07 µM) | 0.8 (≈ 2.85 µM) |
| O=C1C=C[C@]2(OC(=O)c3ccccc3Cl)CCO[C@@H]2C1 | 0.4 (≈ 1.37 µM) | 1 (≈ 3.42 µM) |
| O=C1C=C[C@]2(OC(=O)c3cccc(Cl)c3)CCO[C@@H]2C1 | < 0.1 | 1.2 (≈ 4.1 µM) |
| CC(=O)O[C@]12C=CC(=O)C[C@H]1OCC2 | 0.5 (≈ 2.55 µM) | 4.1 (≈ 20.9 µM) |
| O=C1C=C[C@]2(O)CCO[C@@H]2C1 [HALLERIDONE] | 2.1 (≈ 13.6 µM) | 2.8 (≈ 18.2 µM) |
